In general, half-life refers to the time in which the quantity being followed falls by half. Read a low half-life as fast loss. The clearance is the volume of plasma or blood freed of the substance per unit of time. By Kp is commonly meant tissue or fluid exposure divided by exposure in the circulation. As usually defined, the Papp is the rate of passage across a membrane or cell layer, normalised by area and donor concentration. A high value points to fast passage.

Experimental findings from ChEMBL document CHEMBL2021886, “Identification of a series of 1,3,4-oxadiazol-2-amines as potent alpha-7 agonists with efficacy in the novel object recognition model of cognition” (Bioorg Med Chem Lett, 2012) are described below.

Data set [1] relates to Liver. Briefly: Clearance in human liver assessed per gram of tissue. Type of data set: ADME, tissue-based.
Data set [2] is described as follows: Half life in Sprague-Dawley rat at 1 mg/kg, iv. Type of data set: ADME, organism-based. The note with it: in vivo. The arrangement: dose 1 mg/kg, route intravenous.
A short description of data set [3]: Drug uptake in Lister Hooded rat blood at 3 mg/kg, po after 3 hrs. Set-up: dose 3 mg/kg, route oral. The note with it: read-out: Drug uptake. The data set is classed as ADME, organism-based.
The nature of data set [4]: Blood clearance in Sprague-Dawley rat at 1 mg/kg, iv. The data set is classed as ADME, organism-based. Set-up: dose 1 mg/kg, route intravenous.
Data set [5] relates to Liver. The experiment in a line: Clearance in rat liver assessed per gram of tissue. The data set is classed as ADME, tissue-based. The note with it: in vivo.
Data set [6] in a line: Ratio of drug level in brain to blood in Lister Hooded rat at 3 mg/kg, po after 3 hrs. Type of data set: ADME, organism-based. The arrangement: dose 3 mg/kg, route oral.
A further data set concerns Blood. The experiment in a line: Drug level in novel object recognition model of rat blood at 0.1 mg/kg, po. The arrangement: dose 0.1 mg/kg, route oral. The note with it: in vivo, read-out: Drug uptake. Type of data set: ADME, organism-based.
Data set [7] can be described thus: Intrinsic permeability of the compound in MDCK cells expressing MDR1. The data set is classed as ADME, cell-based, Canis lupus familiaris. The note with it: dog.

Turning to `COc1cc(NC(=O)c2ccccc2F)ccc1-c1nnc(NCCCN2CCCCC2)o1.Cl`, the CLH is less than 0.3 mL/min/g with Liver [1] and less than 0.5 mL/min/g with Liver [5]. This compound showed a half-life in data set [2] of 3.2 h. Also, the concentration at 3 h in data set [3] is 270 nM. The clearance in data set [4] worked out at 28 mL/min/kg. Moreover, the Kp at 3 h in data set [6] came out at 0.4.
In the case of `COc1cc(NC(=O)c2ccccc2F)ccc1-c1nnc(NCCCN2CCCCC2)o1`, the concentration in the data set with Blood is 205 nM. The Papp in data set [7] was determined as 32.5 ×10⁻⁶ cm/s.
With `COc1cc(NC(=O)c2ccccc2F)ccc1-c1nnc(NCCCN2CCOCC2)o1.Cl`, the CLH in the data set on Liver [1] was 0.5 mL/min/g; in the data set on Liver [5], less than 0.5 mL/min/g. In data set [2], the half-life was 0.6 h. For the same compound, in data set [3], the concentration at 3 h turned out to be 294 nM. The clearance in data set [4] turned out to be 41 mL/min/kg. Moreover, the Kp at 3 h in data set [6] amounted to 0.12.
On to `Cl.O=C(Nc1ccc(-c2nnc(NCCCN3CCCCC3)o2)cc1)c1ccccc1F`, for which the CLH in the data set with Liver [1] was 0.5 mL/min/g; with Liver [5], less than 0.2 mL/min/g. This compound had a half-life in data set [2] of 2.9 h. The concentration at 3 h in data set [3] was 205 nM. In addition, the clearance in data set [4] was 67 mL/min/kg. Besides, in data set [6], the Kp at 3 h is 1.7.
